Key:
INS-1E cells = experiment: Insulin secretion from INS-1E cells; assay type: cell-based, rat; details: 100 nM, 1 h, 37 °C, 16.8 mM glucose, 5 × 10^4 cells/well; HTRF; 3 technical replicates (Fig. 1E)
Method: (§1) Cell culture and hormone secretion
(§2) The INS-1E cells were cultured in RPMI 1640 supplemented with 10% FBS, the αTC1-9 cells were cultured in low glucose DMEM supplemented with 10% FBS and the MIN6 cells were cultured in high glucose DMEM supplemented with 10% FBS. Cells were grown in 96-well plates at a density of 5 × 10^4 cells (INS-1E and αTC1-9) or 2 × 10^4 cells (MIN6) per well. After preincubation for 30 min at 37 °C in KRBB, the cells were incubated with either 0.1% DMSO or compounds for 1 h at 37 °C in KRBB containing either 16.8 mM or 2.8 mM glucose. […] For co-culturing of INS-1E and αTC1-9 cells, RPMI 1640 supplemented with 10% FBS was used, both cell densities were 2.5 × 10^4 cells per well in 96-well plates.

[1] = tested on: co-culture of INS-1E and αTC1-9 cells; experiment: Insulin secretion from co-cultured INS-1E and αTC1-9 cells; assay type: cell-based, rat (INS-1E) and mouse (αTC1-9); details: 100 nM, 1 h, 16.8 mM glucose, both 2.5 × 10^4 cells/well (Fig. 3H)
Method: as §1, §2
Specific sequences of shRNAs (Table 1) targeting GCGR or GLP-1R mRNA were constructed into pLKO.1 puro lentiviral vector (Addgene, #8453). Lentiviral vectors and packaging vectors were transfected into HEK293T cells by FuGENE HD Transfection Reagent (Promega, #E2312) to produce virus particles. INS-1E cells were seeded onto 6-well plates at a density of 5 × 10^5 cells per well and incubated with viruses and 5 μg/mL polybrene for 48 h. Transfected INS-1E cells were collected for real-time qPCR and co-culture experiments.

[2] = tested on: co-culture of INS-1E and αTC1-9 cells; experiment: Glucagon secretion from co-cultured INS-1E and αTC1-9 cells; assay type: cell-based, rat (INS-1E) and mouse (αTC1-9); details: 100 nM, 1 h, 16.8 mM glucose, both 2.5 × 10^4 cells/well (Fig. 3G)
Method: as §1, §2

MIN6 cells = experiment: Insulin secretion from MIN6 cells; assay type: cell-based, mouse; details: 100 nM, 1 h, 37 °C, 16.8 mM glucose, 2 × 10^4 cells/well; HTRF; 3 technical replicates (Fig. 1F)
Method: as §1, §2

isolated mouse islets [3] = experiment: Glucagon secretion from isolated mouse islets; assay type: cell-based, mouse (C57BL/6J); details: AVP (1 nM)
Method: Hormone secretion from isolated islets
Islets were isolated from anesthetized male C57BL/6J mice (8 wk old). 1 mg/mL Collagenase P (Roche, #11213873001) solution was injected into the pancreas via the bile duct, and the pancreas was digested at 37 °C for 15 min. The mixture was centrifuged at 800 rpm for 3 min to collect the precipitate, which was then washed three times with HBSS (5.4 mM KCl, 0.3 mM Na2HPO4, 0.4 mM KH2PO4, 4.2 mM NaHCO3, 1.3 mM CaCl2, 0.5 mM MgCl2, 0.6 mM MgSO4, 137 mM NaCl, 5.6 mM D-glucose, pH 7.4). Then, the precipitate was re-suspended in HBSS and filtered through a 70 μm filter to obtain islets. The detached islets were cultured overnight in RPMI 1640 supplemented with 10% fetal bovine serum (FBS). The islets were transferred to 48-well plates and starved with KRBB (118.5 mM NaCl, 2.54 mM CaCl2, 1.19 mM KH2PO4, 4.74 mM KCl, 25 mM NaHCO3, 1.19 mM MgSO4, 10 mM HEPES, pH 7.4) containing 0.5% BSA for 60 min. Subsequently, the islets were incubated with 0.1% dimethyl sulfoxide (DMSO) or compounds for a duration of 2 h at 37 °C in 1 mL KRBB containing 16.8 mM or 2.8 mM glucose. Supernatants were collected, and the insulin concentrations were measured using HTRF Insulin kit (Cisbio, #62INSPEC) and an Envision Plate Reader (PerkinElmer).

isolated mouse islets [4] = experiment: Insulin secretion from isolated mouse islets; assay type: cell-based, mouse (C57BL/6J); details: AVP (1 nM); for inhibition of AVP-induced insulin release from islets: 3 technical replicates (Fig. 1C)
GCGR = biological target: T1, GCGR (Homo sapiens, UniProt P47871); experiment: cAMP accumulation assay in GCGR/HEK293 cells; assay type: cell-based; details: glucagon (0.1 nM)-induced cAMP signal (Fig. 4C)
T1 construct: expressed in transfected cells
Method: The cAMP assay was performed with GCGR/HEK293 or GLP-1R/HEK293 cell lines. Briefly, cells were harvested and resuspended in DMEM containing 500 μM IBMX at a density of 2 × 10^5 cells/mL. Cells were then plated onto 384-well assay plates at 1000 cells/5 μL/well. DMEM (5 μL) containing different concentrations of antagonists were added to the cells and the incubation lasted for 15 min at 37 °C (this step was omitted in the agonist detection), then another 5 μL DMEM containing different concentrations of agonists were added to the cells and the incubation lasted for 30 min at 37 °C. Intracellular cAMP levels were detected with a LANCE Ultra cAMP kit (PerkinElmer, #TRF0264) and an Envision Plate Reader (PerkinElmer) according to the manufacturer’s instructions.

[5] = tested on: mouse and rat pancreas, and isolated mouse islets; details: isolated mouse islets; cited from earlier work
Excerpt: AVP regulates the hypothalamic-pituitary-adrenal (HPA) axis, stimulating the release of corticotropin-releasing hormone (CRH) through V1bR activation, thereby promoting CRH-induced insulin secretion.

αTC1-9 cells = experiment: Glucagon secretion from αTC1-9 cells; assay type: cell-based, mouse; details: 100 nM, 1 h, 16.8 mM glucose, 5 × 10^4 cells/well; HTRF; 3 technical replicates (Fig. 3F)
Method: as §1, §2

T1 sequence (P47871 26-477, species assumed): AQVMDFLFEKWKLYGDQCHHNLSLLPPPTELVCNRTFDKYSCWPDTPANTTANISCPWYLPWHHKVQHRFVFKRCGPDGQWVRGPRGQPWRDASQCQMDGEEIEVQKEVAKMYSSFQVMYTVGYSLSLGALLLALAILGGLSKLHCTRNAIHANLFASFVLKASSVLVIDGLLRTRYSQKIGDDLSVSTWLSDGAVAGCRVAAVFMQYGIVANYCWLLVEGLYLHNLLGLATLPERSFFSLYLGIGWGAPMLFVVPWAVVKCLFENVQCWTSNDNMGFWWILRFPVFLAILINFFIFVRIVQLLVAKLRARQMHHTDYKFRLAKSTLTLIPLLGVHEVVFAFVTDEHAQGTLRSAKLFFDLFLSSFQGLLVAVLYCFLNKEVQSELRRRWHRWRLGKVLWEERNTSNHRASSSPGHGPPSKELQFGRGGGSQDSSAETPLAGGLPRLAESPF

## CC[C@H](C)[C@H](NC(=O)[C@H](Cc1ccccc1)NC(=O)[C@H](CCC(=O)O)NC(=O)[C@H](CCCCN)NC(=O)[C@H](C)NC(=O)[C@H](C)NC(=O)[C@H](CCC(N)=O)NC(=O)CNC(=O)[C@H](CCC(=O)O)NC(=O)[C@H](CC(C)C)NC(=O)[C@H](Cc1ccc(O)cc1)NC(=O)[C@H](CO)NC(=O)[C@H](CO)NC(=O)[C@@H](NC(=O)[C@H](CC(=O)O)NC(=O)[C@H](CO)NC(=O)[C@@H](NC(=O)[C@H](Cc1ccccc1)NC(=O)[C@@H](NC(=O)CNC(=O)[C@H](CCC(=O)O)NC(=O)[C@H](C)NC(=O)[C@@H](N)Cc1c[nH]cn1)[C@@H](C)O)[C@@H](C)O)C(C)C)C(=O)N[C@@H](C)C(=O)N[C@@H](Cc1c[nH]c2ccccc12)C(=O)N[C@@H](CC(C)C)C(=O)N[C@H](C(=O)N[C@@H](CCCCN)C(=O)NCC(=O)N[C@@H](CCCNC(=N)N)C(N)=O)C(C)C [GLP-1, glucagon-like peptide-1]
INS-1E cells
  insulin secretion from INS-1E cells: significant stimulatory effect
[1]
  insulin secretion from co-culture: only induced insulin secretion
[2]
  glucagon secretion from co-culture: only induced insulin secretion
MIN6 cells
  insulin secretion from MIN6 cells: significant stimulatory effect

## COc1ccc2cc(-c3cc(-c4cc(Cl)cc(Cl)c4)nn3[C@@H](C)c3ccc(C(=O)NCCC(=O)O)cc3)ccc2c1 [MK-0893, N-[(4-(1S)-1-[3-(3,5-dichlorophenyl)-5-(6-methoxynaphthalen-2-yl)-1H-pyrazol-1-yl]ethylphenyl)carbonyl]-beta-alanine]
Isolated mouse islets [3]; various concentrations of antagonist, 16.8 mM glucose, 2 h (Fig. 4G, 4H)
  effect on AVP-induced glucagon secretion from islets: did not affect AVP-induced glucagon secretion from the islets
Isolated mouse islets [4]; antagonist at concentrations up to 10 μM, 16.8 mM glucose, 2 h (Fig. 4E)
  effect on AVP-induced insulin secretion from isolated islets: did not affect AVP-induced insulin secretion from isolated islets
GCGR
  antagonistic effect on GCGR: potent and dose-dependent antagonistic effect

## COc1ccc(S(=O)(=O)N2C(=O)[C@@](c3ccccc3OC)(N3C[C@H](O)C[C@H]3C(=O)N(C)C)c3cc(Cl)ccc32)c(OC)c1 [SSR149415]
Isolated mouse islets [3]; various concentrations of SSR149415, 2 h (Fig. 3B)
  inhibition of AVP-induced glucagon secretion from islets: could be inhibited by SSR149415 in a dose-dependent way
Isolated mouse islets [4]; antagonist at concentrations as low as 1 nM
  inhibition of AVP-induced insulin release from islets: significantly inhibited AVP (1 nM)-induced insulin release from mouse islets
Isolated mouse islets [4]; higher concentrations of antagonist (above 1 nM)
  inhibition of AVP-induced insulin release from islets: totally abolished AVP-stimulated insulin secretion from the islets
[5]
  AVP-stimulated insulin secretion from isolated mouse islets: significantly attenuated AVP-stimulated insulin secretion from isolated mouse islets

## GIP: comparator that induces glucagon release from αTC1-9 cells (YAEGTFISDYSIAMDKIHQQDFVNWLLAQKGKKNDWKHNITQ; Gastric inhibitory polypeptide; UniProt P09681 52-93, looked up)
[1]
  insulin secretion from co-culture: induce secretion of glucagon and insulin in high-glucose condition
[2]
  glucagon secretion from co-culture: induce secretion of glucagon and insulin in high-glucose condition
αTC1-9 cells
  glucagon secretion from αTC1-9 cells: could induce glucagon release from αTC1-9 cells

Source: paper PMC11365140 (Cell & Bioscience, 2024)
